Measurements from US4017606A, “Organic compounds and process” (The Upjohn Company, priority 1975, dated 1977).

How the values were obtained:
liver deaminase = experiment: Deamination of cytosine arabinoside in rhesus monkey blood by liver deaminase; format: biochemical; conditions: one part of tetrahydrouridine to 820 parts of cytosine arabinoside
Source text: (§1) This is especially reflected in a drop in the blood level of cytosine arabinoside, usually concomitant with an increase in uracil arabinoside. This destruction of cytosine arabinoside is brought about by a deaminase enzyme present in the blood and tissues of the animal. […] For example, deamination of cytosine arabinoside in rhesus monkey blood by liver deaminase was inhibited about 90% by the addition of one part of 4-hydroxyl-1-β-D-ribofuranosyl-tetrahydro-2(1H)-pyrimidinone (tetrahydrouridine) to 820 parts of cytosine arabinoside.

[1] = Serum half life of cytosine arabinoside in beagle dogs with or without tetrahydrouridine; conditions: dog, in vivo
Source text: as §1

[2] = target: deaminase enzymes (centrifuged 25 percent homogenate of normal human liver) (Homo sapiens, UniProt P32320); experiment: Competitive efficacy (C.E.) test: inhibition of cytosine arabinoside deamination; conditions: 1.0 micromole tritiated Ca, pH 8.0, 37° C., 45 minutes
deaminase enzymes (centrifuged 25 percent homogenate of normal human liver), sequence (P32320 whole entry): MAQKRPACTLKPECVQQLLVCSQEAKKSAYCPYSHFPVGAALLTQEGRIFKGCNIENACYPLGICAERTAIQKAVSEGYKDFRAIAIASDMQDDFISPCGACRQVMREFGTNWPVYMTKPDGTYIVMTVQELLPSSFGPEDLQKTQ
Method: The inhibition of cytosine arabinoside deamination by a compound is conveniently expressed in terms of its competitive efficacy (C.E.). The competitive efficacy of a compound is determined as follows:
Enzyme reaction mixture are prepared in 12-ml. centrifuge tubes in an ice bath. […] This is the standard reaction mixture. […] The tubes are then assayed for radioactive uracil arabinoside as described below, and the percent conversion of tritiated Ca to tritiated uracil arabinosie is calculated. A standard curve of the percent conversion vs. log10 of the initial ratio of untritiated Ca to tritiated Ca is plotted. This is the standard curve for the C.E. test.
Reaction mixture for C.E. test.
To determine the C.E. of a compound, known amounts of the compound are added to the above standard reaction mixture and the percent conversion of tritiated Ca to tritiated uracil arabinoside is measured. […] From this ratio and the amount of test compound in the assay reaction mixture, the C.E. is calculated. […]
After 45 minute incubation of the enzyme reaction mixtures, further reaction is stopped by the addition of one-half volume of iced, 15 percent trichloroacetic acid. […] Suitable quantities (4 microliters) of clear supernatant solution are co-chromatographed with a mixture of 40 millimicromoles each of non-tritiated carrier Ca and uracil arabinoside on Whatman No. 40 paper. […]

myelogenous leukemia = conditions: adults; 1 to 5 mg./kg. weekly intravenously or subcutaneously as maintenance; cited from earlier work

## O=C1NC(O)CCN1[C@@H]1O[C@H](CO)[C@@H](O)[C@H]1O (single isomer, unassigned) [tetrahydrouridine, 4-hydroxy-1-β-D-ribofuranosyl-tetrahydro-2(1H)-pyrimidinone]
Liver deaminase
  inhibition of deamination of cytosine arabinoside: about 90%
[1]; iv
  half life of cytosine arabinoside in the serum: 2.27 to 3 h

## O=C1NCCCN1[C@@H]1O[C@H](CO)[C@@H](O)[C@H]1O [E]
[2]
  Competitive Efficacy: 200

## Nc1ccn([C@@H]2O[C@H](CO)[C@@H](O)[C@@H]2O)c(=O)n1 [cytosine arabinoside, 1-β-D-arabinofuranosylcytosine, reference compound]
Myelogenous leukemia
  duration of remission of myelogenous leukemia (bone marrow response): more than 203 days
[1]; control dogs without tetrahydrouridine, 50 mg./kg. cytosine arabinoside intravenous
  half-life: 1.1 to 1.33 h
